# Test results as given in ChEMBL document CHEMBL3351422, “Discovery of N-substituted 7-azaindoline derivatives as potent, orally available M1 and M4 muscarinic acetylcholine receptors selective agonists” (Bioorg Med Chem Lett, 2014).
# Assays:
# [1] = Oral bioavailability in monkey at 2.5 mg/kg; assay type: ADME, organism-based, Macaca mulatta; conditions: rhesus monkey, in vivo
# [2] = Clearance in monkey at 0.25 mg/kg, iv and 2.5 mg/kg, po; assay type: ADME, organism-based, Macaca mulatta; conditions: rhesus monkey, in vivo
# [3] = Cmax in monkey at 0.25 mg/kg, iv and 2.5 mg/kg, po; assay type: ADME, organism-based, Macaca mulatta; conditions: rhesus monkey, in vivo
# [4] = Volume of distribution at steady state in monkey at 0.25 mg/kg, iv and 2.5 mg/kg, po; assay type: ADME, organism-based, Macaca mulatta; conditions: rhesus monkey, in vivo, read-out: Vdss
# [5] = target: T1, Muscarinic acetylcholine receptor M2 (Homo sapiens) (UniProt P08172); assay: Intrinsic activity at muscarinic M2 receptor (unknown origin) at 10 uM by calcium mobilization assay; assay type: functional
# T1 sequence (whole entry): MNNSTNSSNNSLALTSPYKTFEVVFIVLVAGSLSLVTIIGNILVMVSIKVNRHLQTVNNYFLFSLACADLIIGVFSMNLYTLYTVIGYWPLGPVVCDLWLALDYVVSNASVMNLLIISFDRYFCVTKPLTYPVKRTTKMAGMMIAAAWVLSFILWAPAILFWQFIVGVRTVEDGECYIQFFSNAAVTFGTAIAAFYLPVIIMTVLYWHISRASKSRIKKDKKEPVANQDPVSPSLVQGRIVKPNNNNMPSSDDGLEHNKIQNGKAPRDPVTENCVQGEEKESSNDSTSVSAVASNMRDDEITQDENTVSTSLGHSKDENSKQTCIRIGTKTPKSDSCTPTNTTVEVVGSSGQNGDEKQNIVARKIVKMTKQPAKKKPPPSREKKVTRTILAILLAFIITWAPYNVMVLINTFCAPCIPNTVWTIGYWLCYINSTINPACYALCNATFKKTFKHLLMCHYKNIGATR
# [6] = target: Muscarinic acetylcholine receptor M3 (Homo sapiens) (UniProt P20309); assay: Intrinsic activity at muscarinic M3 receptor (unknown origin) at 10 uM by calcium mobilization assay; assay type: functional
# Chain of Muscarinic acetylcholine receptor M3 (Homo sapiens) (P20309 whole entry, looked up): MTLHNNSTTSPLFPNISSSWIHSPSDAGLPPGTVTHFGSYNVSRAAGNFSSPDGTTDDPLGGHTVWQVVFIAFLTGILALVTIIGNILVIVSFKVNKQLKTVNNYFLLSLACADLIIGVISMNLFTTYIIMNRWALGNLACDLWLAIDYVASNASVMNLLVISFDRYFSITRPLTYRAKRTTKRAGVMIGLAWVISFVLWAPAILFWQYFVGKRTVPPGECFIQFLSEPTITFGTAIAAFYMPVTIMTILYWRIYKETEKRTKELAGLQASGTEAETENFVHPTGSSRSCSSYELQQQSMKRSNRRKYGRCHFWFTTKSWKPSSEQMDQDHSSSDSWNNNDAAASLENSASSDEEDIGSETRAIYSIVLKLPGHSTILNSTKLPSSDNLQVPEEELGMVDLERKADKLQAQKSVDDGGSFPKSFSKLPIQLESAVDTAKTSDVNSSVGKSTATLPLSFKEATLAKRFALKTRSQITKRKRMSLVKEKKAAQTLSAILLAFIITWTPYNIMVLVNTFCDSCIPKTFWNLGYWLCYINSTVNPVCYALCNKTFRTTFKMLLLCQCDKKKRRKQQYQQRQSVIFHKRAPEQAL
# Rattus norvegicus [7] = assay: Antipsychotic-like effect in po dosed rat assessed as methamphetamine-induced locomotor hyperactivity; assay type: functional
# [8] = target: cAMP and cAMP-inhibited cGMP 3',5'-cyclic phosphodiesterase 10A (Homo sapiens) (UniProt Q9Y233); assay: Inhibition of human PDE10A1 at 3 uM by radioligand binding assay
# Chain of cAMP and cAMP-inhibited cGMP 3',5'-cyclic phosphodiesterase 10A (Homo sapiens) (Q9Y233 whole entry): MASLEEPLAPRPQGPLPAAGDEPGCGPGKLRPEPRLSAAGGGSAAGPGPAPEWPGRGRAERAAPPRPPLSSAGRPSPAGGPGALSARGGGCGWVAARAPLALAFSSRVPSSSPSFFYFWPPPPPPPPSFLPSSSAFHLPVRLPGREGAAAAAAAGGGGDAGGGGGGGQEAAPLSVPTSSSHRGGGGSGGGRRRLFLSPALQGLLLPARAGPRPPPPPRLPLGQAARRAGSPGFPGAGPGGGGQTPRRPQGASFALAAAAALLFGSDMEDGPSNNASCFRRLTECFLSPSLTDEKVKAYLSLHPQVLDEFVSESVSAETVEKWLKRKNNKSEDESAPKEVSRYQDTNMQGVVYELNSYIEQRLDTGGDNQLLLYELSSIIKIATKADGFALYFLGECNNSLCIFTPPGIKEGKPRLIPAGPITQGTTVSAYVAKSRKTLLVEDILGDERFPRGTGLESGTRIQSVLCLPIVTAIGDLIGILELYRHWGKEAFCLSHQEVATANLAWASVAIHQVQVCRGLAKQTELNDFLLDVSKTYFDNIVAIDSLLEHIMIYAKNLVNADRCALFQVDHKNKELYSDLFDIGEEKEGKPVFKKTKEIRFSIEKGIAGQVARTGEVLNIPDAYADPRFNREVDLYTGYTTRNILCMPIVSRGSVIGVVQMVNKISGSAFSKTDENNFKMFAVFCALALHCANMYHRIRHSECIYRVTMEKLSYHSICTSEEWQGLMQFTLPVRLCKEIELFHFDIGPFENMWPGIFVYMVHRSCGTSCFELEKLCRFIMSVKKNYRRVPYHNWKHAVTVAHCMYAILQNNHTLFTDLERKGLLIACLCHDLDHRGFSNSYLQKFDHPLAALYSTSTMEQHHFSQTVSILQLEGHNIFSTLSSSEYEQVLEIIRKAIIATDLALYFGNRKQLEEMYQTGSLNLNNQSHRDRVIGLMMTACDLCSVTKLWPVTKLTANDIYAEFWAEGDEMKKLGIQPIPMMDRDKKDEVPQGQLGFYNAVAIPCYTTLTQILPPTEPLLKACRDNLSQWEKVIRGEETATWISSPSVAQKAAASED
# [9] = target: Alpha-1B adrenergic receptor (Rattus norvegicus) (UniProt P15823); assay: Inhibition of rat alpha1B adrenergic receptor at 3 uM by radioligand binding assay
# [10] = target: Alpha-1D adrenergic receptor (Homo sapiens) (UniProt P25100); assay: Inhibition of human alpha1D adrenergic receptor at 3 uM by radioligand binding assay
# [11] = target: L-type calcium channel, dihydropyridine binding site (Rattus norvegicus, UniProt P22002+P27732+Q02485); assay: Inhibition of rat L-type calcium channel dihydropyridine binding site at 3 uM by radioligand binding assay; assay type: protein assay
# Rattus norvegicus [12] = organism: Rattus norvegicus; assay: Inhibition of rat N-type calcium channel at 3 uM by radioligand binding assay
# [13] = target: D(4) dopamine receptor (Homo sapiens) (UniProt P21917); assay: Inhibition of human dopamine D4.2 receptor at 3 uM by radioligand binding assay
# Chain of D(4) dopamine receptor (Homo sapiens) (P21917 whole entry): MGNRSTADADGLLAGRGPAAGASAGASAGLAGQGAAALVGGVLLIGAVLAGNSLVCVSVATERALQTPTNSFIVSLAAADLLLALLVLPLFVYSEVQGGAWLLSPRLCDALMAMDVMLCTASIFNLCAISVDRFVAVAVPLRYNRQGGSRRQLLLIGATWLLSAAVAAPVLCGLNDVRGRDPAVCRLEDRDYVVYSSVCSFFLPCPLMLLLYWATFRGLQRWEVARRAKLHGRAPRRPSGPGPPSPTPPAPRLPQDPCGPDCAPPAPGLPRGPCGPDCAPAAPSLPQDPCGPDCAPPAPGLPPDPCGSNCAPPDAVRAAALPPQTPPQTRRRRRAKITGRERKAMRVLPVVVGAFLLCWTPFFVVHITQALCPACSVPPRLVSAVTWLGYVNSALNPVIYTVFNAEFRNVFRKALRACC
# [14] = target: Endothelin receptor type B (Homo sapiens) (UniProt P24530); assay: Inhibition of human ETB receptor at 3 uM by radioligand binding assay
# Chain of Endothelin receptor type B (Homo sapiens) (P24530 whole entry): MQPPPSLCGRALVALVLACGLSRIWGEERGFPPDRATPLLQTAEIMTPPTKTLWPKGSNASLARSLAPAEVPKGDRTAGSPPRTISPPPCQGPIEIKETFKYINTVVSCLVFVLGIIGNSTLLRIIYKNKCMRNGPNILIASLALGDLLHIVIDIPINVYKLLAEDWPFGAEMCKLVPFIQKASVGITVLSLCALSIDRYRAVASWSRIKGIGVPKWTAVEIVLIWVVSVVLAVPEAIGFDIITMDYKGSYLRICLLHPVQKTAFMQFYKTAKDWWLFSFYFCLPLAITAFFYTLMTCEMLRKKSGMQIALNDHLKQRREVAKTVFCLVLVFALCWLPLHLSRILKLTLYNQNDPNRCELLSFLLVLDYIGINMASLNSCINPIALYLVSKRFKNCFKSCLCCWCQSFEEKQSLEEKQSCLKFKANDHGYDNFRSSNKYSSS
# [15] = target: Glucocorticoid receptor (Homo sapiens) (UniProt P04150); assay: Inhibition of human glucocortlicoid receptor at 3 uM by radioligand binding assay
# Chain of Glucocorticoid receptor (Homo sapiens) (P04150 whole entry): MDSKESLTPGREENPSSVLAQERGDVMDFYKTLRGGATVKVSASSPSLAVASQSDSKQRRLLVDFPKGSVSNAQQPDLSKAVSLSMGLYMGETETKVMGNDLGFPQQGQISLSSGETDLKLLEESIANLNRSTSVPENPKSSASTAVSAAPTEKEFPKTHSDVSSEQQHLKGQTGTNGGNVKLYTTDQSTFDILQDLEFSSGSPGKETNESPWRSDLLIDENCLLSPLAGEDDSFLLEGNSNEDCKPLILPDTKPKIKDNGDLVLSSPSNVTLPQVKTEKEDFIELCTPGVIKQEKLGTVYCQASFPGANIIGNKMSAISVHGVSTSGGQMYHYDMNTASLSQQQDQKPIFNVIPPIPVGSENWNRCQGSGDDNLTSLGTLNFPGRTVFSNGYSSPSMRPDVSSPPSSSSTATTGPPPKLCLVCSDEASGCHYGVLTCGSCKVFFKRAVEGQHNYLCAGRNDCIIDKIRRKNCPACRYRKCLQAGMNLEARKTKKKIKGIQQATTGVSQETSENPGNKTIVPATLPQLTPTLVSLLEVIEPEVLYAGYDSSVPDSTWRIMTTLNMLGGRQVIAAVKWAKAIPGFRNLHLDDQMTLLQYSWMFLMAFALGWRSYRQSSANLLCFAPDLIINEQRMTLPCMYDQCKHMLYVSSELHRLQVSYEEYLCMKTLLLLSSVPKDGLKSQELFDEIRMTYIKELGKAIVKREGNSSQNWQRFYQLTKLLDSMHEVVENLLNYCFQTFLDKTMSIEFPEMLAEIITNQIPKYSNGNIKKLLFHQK
# [16] = target: Glutamate NMDA receptor (Rattus norvegicus) (UniProt P35439+Q00959+Q00960+Q00961+Q62645+Q8VHN2+Q9R1M7); assay: Inhibition of rat NMDA receptor agonist binding site at 3 uM by radioligand binding assay; assay type: protein-complex assay
# [17] = target: Histamine H1 receptor (Homo sapiens) (UniProt P35367); assay: Inhibition of human histamine H1 receptor at 3 uM by radioligand binding assay
# [18] = target: Histamine H2 receptor (Homo sapiens) (UniProt P25021); assay: Inhibition of human histamine H2 receptor at 3 uM by radioligand binding assay
# Chain of Histamine H2 receptor (Homo sapiens) (P25021 whole entry): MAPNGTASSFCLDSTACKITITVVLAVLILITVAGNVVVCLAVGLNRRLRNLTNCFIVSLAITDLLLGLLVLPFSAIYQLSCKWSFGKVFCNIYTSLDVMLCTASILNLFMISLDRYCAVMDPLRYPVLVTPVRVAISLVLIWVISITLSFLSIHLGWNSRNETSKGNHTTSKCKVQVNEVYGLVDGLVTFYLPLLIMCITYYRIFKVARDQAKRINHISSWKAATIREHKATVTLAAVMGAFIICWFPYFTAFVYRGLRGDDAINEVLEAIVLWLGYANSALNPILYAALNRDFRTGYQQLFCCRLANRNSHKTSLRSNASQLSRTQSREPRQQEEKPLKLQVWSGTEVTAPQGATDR
# [19] = target: Delta-type opioid receptor (Homo sapiens) (UniProt P41143); assay: Inhibition of human delta opioid receptor at 3 uM by radioligand binding assay
# [20] = target: Kappa-type opioid receptor (Homo sapiens) (UniProt P41145); assay: Inhibition of human kappa opioid receptor at 3 uM by radioligand binding assay
# Chain of Kappa-type opioid receptor (Homo sapiens) (P41145 whole entry): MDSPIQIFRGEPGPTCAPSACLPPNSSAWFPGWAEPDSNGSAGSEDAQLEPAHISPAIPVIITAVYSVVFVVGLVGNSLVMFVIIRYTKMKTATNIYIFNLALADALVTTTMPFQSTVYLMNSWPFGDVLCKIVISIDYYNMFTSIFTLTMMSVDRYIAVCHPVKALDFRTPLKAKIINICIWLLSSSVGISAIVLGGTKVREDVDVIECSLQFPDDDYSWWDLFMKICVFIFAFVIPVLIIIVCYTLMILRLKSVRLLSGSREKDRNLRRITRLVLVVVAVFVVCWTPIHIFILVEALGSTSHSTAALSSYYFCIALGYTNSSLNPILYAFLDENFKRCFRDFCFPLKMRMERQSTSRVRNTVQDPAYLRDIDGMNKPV
# [21] = target: Mu-type opioid receptor (Homo sapiens) (UniProt P35372); assay: Inhibition of human mu opioid receptor at 3 uM by radioligand binding assay
# Chain of Mu-type opioid receptor (Homo sapiens) (P35372 whole entry): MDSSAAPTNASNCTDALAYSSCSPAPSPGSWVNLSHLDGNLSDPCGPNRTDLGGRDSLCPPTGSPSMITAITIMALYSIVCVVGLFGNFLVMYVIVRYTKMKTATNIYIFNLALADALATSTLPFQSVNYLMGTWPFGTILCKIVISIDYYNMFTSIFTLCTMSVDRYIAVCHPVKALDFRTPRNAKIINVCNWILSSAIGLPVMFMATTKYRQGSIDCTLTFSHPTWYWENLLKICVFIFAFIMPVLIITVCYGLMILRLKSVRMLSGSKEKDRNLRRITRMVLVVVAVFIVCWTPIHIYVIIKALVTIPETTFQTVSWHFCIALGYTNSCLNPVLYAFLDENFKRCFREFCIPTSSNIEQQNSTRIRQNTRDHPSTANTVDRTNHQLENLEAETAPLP
# hERG (KCNH2) = hERG (KCNH2) (Homo sapiens, UniProt Q12809); assay: Inhibition of human ERG channel at 3 uM by radioligand binding assay
# Oryctolagus cuniculus = organism: Oryctolagus cuniculus; assay: Inhibition of rabbit purinergic P2X receptor at 3 uM by radioligand binding assay
# Rattus norvegicus [22] = organism: Rattus norvegicus; assay: Inhibition of rat purinergic P2Y receptor at 3 uM by radioligand binding assay
# Rattus norvegicus [23] = organism: Rattus norvegicus; assay: Inhibition of rat thyroid hormone receptor at 3 uM by radioligand binding assay
# [24] = target: Muscarinic acetylcholine receptor M1 (Homo sapiens, UniProt P11229); assay: Agonist activity at muscarinic M1 receptor (unknown origin) by calcium mobilization assay; assay type: functional
# Chain of Muscarinic acetylcholine receptor M1 (P11229 whole entry): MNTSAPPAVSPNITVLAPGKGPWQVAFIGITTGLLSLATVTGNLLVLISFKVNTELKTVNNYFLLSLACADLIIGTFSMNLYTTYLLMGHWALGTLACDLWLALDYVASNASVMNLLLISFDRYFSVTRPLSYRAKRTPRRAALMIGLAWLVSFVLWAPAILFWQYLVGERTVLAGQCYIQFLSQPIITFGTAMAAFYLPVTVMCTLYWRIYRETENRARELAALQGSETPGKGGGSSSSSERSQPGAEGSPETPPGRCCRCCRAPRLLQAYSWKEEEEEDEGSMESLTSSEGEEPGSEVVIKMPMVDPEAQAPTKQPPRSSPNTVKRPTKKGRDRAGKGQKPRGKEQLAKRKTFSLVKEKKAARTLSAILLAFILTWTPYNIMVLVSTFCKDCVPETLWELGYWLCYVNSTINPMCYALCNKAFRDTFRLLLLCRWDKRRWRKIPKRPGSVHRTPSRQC
# [25] = target: Muscarinic acetylcholine receptor M4 (Homo sapiens, UniProt P08173); assay: Agonist activity at muscarinic M4 receptor (unknown origin) by calcium mobilization assay; assay type: functional
# [26] = target: T2, Muscarinic acetylcholine receptor M4 (Homo sapiens) (UniProt P08173); assay: Agonist activity at muscarinic M4 receptor (unknown origin) at 0.3 uM by calcium mobilization assay; assay type: functional
# T2 sequence (whole entry): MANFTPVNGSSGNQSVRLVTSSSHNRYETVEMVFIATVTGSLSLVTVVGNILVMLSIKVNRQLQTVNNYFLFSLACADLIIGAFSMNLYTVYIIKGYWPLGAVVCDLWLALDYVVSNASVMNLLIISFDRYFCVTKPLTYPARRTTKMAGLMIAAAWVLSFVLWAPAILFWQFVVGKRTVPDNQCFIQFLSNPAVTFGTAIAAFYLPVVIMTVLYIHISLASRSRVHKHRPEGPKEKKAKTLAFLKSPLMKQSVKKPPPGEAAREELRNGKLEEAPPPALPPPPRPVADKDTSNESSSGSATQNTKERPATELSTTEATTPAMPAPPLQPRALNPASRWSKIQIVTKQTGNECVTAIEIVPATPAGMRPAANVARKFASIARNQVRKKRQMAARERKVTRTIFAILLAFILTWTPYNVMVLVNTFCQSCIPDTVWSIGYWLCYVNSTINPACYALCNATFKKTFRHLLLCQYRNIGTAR
# [27] = Lipophilicity, log P of the compound; assay type: physicochemical; conditions: octanol/water
# [28] = Cmax in rat at 0.25 mg/kg, iv and 2.5 mg/kg, po; assay type: ADME, organism-based; conditions: in vivo
# Cricetinae = conditions: 3 uM
# Description: Inhibition of hamster potassium channel at 3 uM by radioligand binding assay
compound,measurement,setting,value
CCOC(=O)N1CCC(CN2CCC3(CC2)CN(C(=O)N(C)C)c2ncccc23)CC1.O=C(O)/C=C/C(=O)O,bioavailability,[1],39.8%
same,clearance,[2],16.5 mL/min/kg
same,Cmax,[3],30.7 ng/mL
same,Vd,[4],2.3 L/kg
same,Intrinsic activity,[5],5%
same,Intrinsic activity,[6],2%
same,ED50,Rattus norvegicus [7],1.44 mg/kg
same,inhibition,[8],-2%
same,inhibition,[9],9%
same,inhibition,[10],10%
same,inhibition at 3 µM,[11],11%
same,inhibition,Rattus norvegicus [12],4%
same,inhibition,[13],4%
same,inhibition,[14],-1%
same,inhibition,[15],15%
same,inhibition,[16],4%
same,inhibition,[17],-2%
same,inhibition,[18],4%
same,inhibition,[19],-1%
same,inhibition,[20],7%
same,inhibition,[21],3%
same,inhibition at 3 µM,hERG (KCNH2),0%
same,inhibition,Oryctolagus cuniculus,3%
same,inhibition,Rattus norvegicus [22],9%
same,inhibition,Rattus norvegicus [23],4%
same,EC50,[24],133 nM
same,EC50,[25],47 nM
same,Activity,[26],118%
same,logP,[27],1.3
same,Cmax,[28],207 ng/mL
same,inhibition,Cricetinae,6%
